Several values for one entry are separate records, joined by “and”; a condition that tells them apart may be missing. Equal values may be shown once.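 1) Cells in 96-well plates. 2) Compound, 48 h, 5 concentrations. 3) Linear interpolation between surrounding doses. 4) Unreached endpoint = highest concentration. Abbreviation: GI50, concentration required for 50% inhibition of growth. TGI is the concentration that stops growth completely.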 Where a SMILES comes first, the peptide text is derived from it. The star is where a group is joined. Cbz = O=C(OCc1ccccc1)*
How the values were obtained:
Assay in all cases: inhibition of tumour cell growth, NCI panel, 48 h
[1] = test system: NCI-H23 lung
[2] = test system: SK-MEL-2 melanoma
[3] = test system: SR leukemia
[4] = test system: U251 CNS
[5] = test system: A498 renal
[6] = test system: COLO 205 colon
[7] = test system: MCF7 breast
[8] = test system: SK-MEL-5 melanoma
[9] = test system: HL-60(TB) leukemia
[10] = test system: SF-268 CNS
[11] = test system: KM12 colon

SMILES	TGI [1]	TGI [2]	TGI [3]	TGI [4]	TGI [5] [µM]	TGI [6]	TGI [7]	TGI [8]	TGI [9]	TGI [10]	TGI [11]	GI50 [1]	GI50 [3]	GI50 [4]	GI50 [6]	GI50 [8]	GI50 [9]
COC(=O)C1(C)CCCC2(C)C3CCC4CC3(C=C4CO)CCC12 (stereo not given)	> 100 µM	> 100 µM	62 µM	> 100 µM	> 100	> 100 µM	72.7 µM	> 100 µM	43.9 µM	> 100 µM	–	–	–	–	–	–	–
CCOC(=O)C(=CNC(=S)Nc1c(CC)cccc1CC)C(=O)OCC	> 100 µM	> 100 µM	> 100 µM	> 100 µM	> 100	> 100 µM	> 100 µM	> 100 µM	> 100 µM	> 100 µM	> 100 µM	–	–	–	–	–	–
Cc1cc(-c2nc3cc(O)ccc3s2)ccc1N	> 100 µM	74.4 µM	> 100 µM	> 100 µM	61.7	49.8 µM	> 100 µM	48 µM	> 100 µM	> 100 µM	66.6 µM	–	–	–	–	–	–
NS(=O)(=O)c1nnc(/N=C(/CCC(=O)O)C(=O)O)s1	> 100 µM	> 100 µM	> 100 µM	> 100 µM	> 100	> 100 µM	> 100 µM	> 100 µM	> 100 µM	–	> 100 µM	–	–	–	–	–	–
Cc1c(F)c(N)c2c(=O)cc(-c3ccc(NC(=O)[C@@H](N)CCCCN)c(F)c3)oc2c1F	23.3 µM and 37.5 µM	34.6 µM and 47.1 µM	20.3 µM and 9.55 µM	21.9 µM and 15.1 µM	0.22	31.5 µM and 24.4 µM	1.81 µM and 1.38 µM	27.4 µM and 27.2 µM	29.3 µM and 30.4 µM	34.7 µM and 39.6 µM	24.8 µM and 22.4 µM	5.61 µM and 15.4 µM	5.84 µM and 2.53 µM	2.96 µM and 0.842 µM	14.9 µM and 6.93 µM	13.2 µM and 2.63 µM	11.2 µM and 2.41 µM
Clc1ccccc1-c1nnc2c(-c3ccccc3)nc3ccccc3n12	> 100 µM	> 100 µM	> 100 µM	> 100 µM	> 100	> 100 µM	> 100 µM	> 100 µM	> 100 µM	> 100 µM	> 100 µM	–	–	–	–	–	–
OC(C/C(=N\N=C(/CC(O)(C(F)(F)F)C(F)(F)F)c1ccccc1)c1ccccc1)(C(F)(F)F)C(F)(F)F	> 10 µM	> 10 µM	> 10 µM	> 10 µM	> 10	> 10 µM	> 10 µM	> 10 µM	> 10 µM	> 10 µM	> 10 µM	–	–	–	–	–	–
O=C1C(=C(C(=O)c2ccccc2)C(=O)c2ccccc2)OC(c2ccccc2)=C1C(=O)c1ccccc1	25.8 µM	28.3 µM	14.2 µM	> 100 µM	44.2	25.7 µM	29.7 µM	25 µM	30.8 µM	34.8 µM	42.3 µM	–	–	–	–	–	–
CC(C)(C)c1cc(C(=O)/C=C/c2ccc3c(c2)CCO3)cc(C(C)(C)C)c1O	> 24.5 µM	13.1 µM	7.39 µM	3.17 µM	24.4	1.58 µM	> 100 µM	6.65 µM	5.53 µM	24.5 µM	3.66 µM	–	–	–	–	–	–
CC(C)(C)N(Cc1ccoc1)C(=O)/C=C\S(=O)c1ccccc1 (stereo not given)	32.3 µM	39.6 µM	77.8 µM	29.9 µM	68.1	43.9 µM	36.7 µM	27.4 µM	47.5 µM	> 100 µM	34.5 µM	–	–	–	–	–	–
CC(=O)N1C2=CCCC2(C)c2ccccc21 (stereo not given)	> 100 µM	> 100 µM	> 100 µM	> 100 µM	> 100	> 100 µM	> 100 µM	> 100 µM	83.6 µM	> 100 µM	> 100 µM	–	–	–	–	–	–
CCN1C[C@]2(C)CC[C@H](OCc3ccccc3)C34C5C[C@@H]6CC[C@](O)(C(C[C@@H]32)C14)C5[C@H]6OCc1ccccc1 (stereo not given in full)	> 100 µM	> 100 µM	> 100 µM	> 100 µM	> 100	> 100 µM	> 100 µM	> 100 µM	–	> 100 µM	> 100 µM	–	–	–	–	–	–
O=C(n1c(=O)n(-c2ccc(Cl)cc2)c(=O)n1C(=O)C(Cl)(Cl)Cl)C(Cl)(Cl)Cl	> 100 µM	> 100 µM	> 100 µM	> 100 µM	> 100	> 100 µM	> 100 µM	> 100 µM	> 100 µM	> 100 µM	> 100 µM	–	–	–	–	–	–
Nc1cccc(C#Cc2cccc(C#Cc3cccc(N)n3)n2)n1	> 100 µM	> 100 µM	> 100 µM	> 100 µM	> 100	> 100 µM	> 100 µM	> 100 µM	–	> 100 µM	> 100 µM	–	–	–	–	–	–
CCCCc1ccc(Nc2nc(N)c3ncn(COCCO)c3n2)cc1	56.3 µM	37.5 µM	> 100 µM	66.4 µM	88.7	43.8 µM	> 100 µM	32.7 µM	> 100 µM	> 100 µM	> 100 µM	–	–	–	–	–	–
CN(C)/C=C/c1nnnn1-c1ccc(I)cc1	56.1 µM	–	41.6 µM	34.9 µM	> 100	> 100 µM	65 µM	33 µM	25.7 µM	51 µM	36.7 µM	–	–	–	–	–	–

SMILES	TGI [1]	TGI [2]	TGI [3]	TGI [4]	TGI [5] [µM]	TGI [6]	TGI [7]	TGI [8]	TGI [9]	TGI [10]	TGI [11]	GI50 [1]	GI50 [3]	GI50 [4]	GI50 [6]	GI50 [8]	GI50 [9]
CC(C)c1ccc2[nH]c(O)c(C3=Nc4ccccc4C3=O)c2c1	> 100 µM	53.8 µM	54.5 µM	41.4 µM	5.5	> 100 µM	1.3 µM	> 100 µM	–	> 100 µM	> 100 µM	–	–	–	–	–	–
O=S1c2ccccc2SCSc2ccccc21	> 100 µM	> 100 µM	91.1 µM	> 100 µM	> 100	> 100 µM	> 100 µM	> 100 µM	–	> 100 µM	> 100 µM	–	–	–	–	–	–
CCOC(=O)C(CC(=O)OC)NC(=O)C(CC(=O)OC)NC(=O)C(CC(=O)OC)NC(=O)C(CC(=O)OC)NC(=O)OCc1ccccc1 (stereo not given) (Cbz-D(OMe)D(OMe)D(OMe)D(OMe)-OEt; configuration not given here)	> 100 µM	> 100 µM	> 100 µM	> 100 µM	> 100	> 100 µM	> 100 µM	> 100 µM	> 100 µM	–	> 100 µM	–	–	–	–	–	–
CC(=O)N1N=C(c2c(O)ccc3ccccc23)CC1c1ccc(Cl)cc1 (stereo not given)	46.5 µM	38.2 µM	28.3 µM	63.1 µM	66.3	39.2 µM	35.1 µM	47 µM	–	> 100 µM	29.9 µM	–	–	–	–	–	–
O=[N+]([O-])/C=C/COCc1cc2c(cc1Br)OCO2	–	–	54.1 µM	30.7 µM	86.4	43.6 µM	33.5 µM	37.1 µM	–	41.4 µM	33.8 µM	–	–	–	–	–	–
CN(C)c1ccc(N=Nc2cccc3ncccc23)cc1	> 100 µM	> 100 µM	> 100 µM	> 100 µM	–	> 100 µM	> 100 µM	61.2 µM	35.9 µM	> 100 µM	> 100 µM	–	–	–	–	–	–
O=C(/C=C(\O)c1ccc(Cl)cc1)C(=O)NN=C(c1ccccc1)c1ccccc1	> 100 µM	> 100 µM	> 100 µM	> 100 µM	47.2	74.4 µM	> 100 µM	> 100 µM	–	> 100 µM	> 100 µM	–	–	–	–	–	–
COc1ccc2nc3ccc(OC)cc3c(SCC3CO3)c2c1 (stereo not given)	35.4 µM	28.4 µM	80.4 µM	27.1 µM	> 100	41.8 µM	26.6 µM	33.5 µM	–	31.6 µM	34.4 µM	–	–	–	–	–	–
CC(C)(C)[Si](C)(C)OCC#C[C@@]1(O)CCCCC1CC(Sc1ccccc1)Sc1ccccc1 (stereo not given in full)	36.1 µM	31.7 µM	57.4 µM	26.1 µM	30.4	31.6 µM	24.7 µM	29.2 µM	41.9 µM	–	63.8 µM	–	–	–	–	–	–
Cc1cc(C)c(NS(=O)c2cccc(Cl)c2)c(C)c1 (stereo not given)	> 100 µM	–	> 100 µM	> 100 µM	> 100	> 100 µM	> 100 µM	–	> 100 µM	> 100 µM	> 100 µM	–	–	–	–	–	–
COC(=O)/C(=C\c1cn(C(C)=O)c2ccccc12)P(=O)(OC)OC	30.2 µM	–	> 100 µM	29.5 µM	31.4	33.3 µM	26.4 µM	26.5 µM	> 100 µM	54 µM	–	–	–	–	–	–	–
O=C(CC(C(=O)c1cccs1)c1ccsc1)c1ccco1 (stereo not given)	49.7 µM	–	> 100 µM	49.6 µM	64	95.5 µM	42.3 µM	> 100 µM	41.3 µM	74.2 µM	42.7 µM	–	–	–	–	–	–
CN(C)CCCNc1ccc2nnn3c4ccc(OC(=O)c5ccc([N+](=O)[O-])cc5)cc4c(=O)c1c23	24.5 µM	> 52.1 µM	11.5 µM	33.9 µM	49.1	18.2 µM	> 38.9 µM	–	–	21.9 µM	21.3 µM	–	–	–	–	–	–
CN(C)/C=C/c1ccncc1	> 100 µM	> 100 µM	> 100 µM	> 100 µM	> 100	> 100 µM	> 100 µM	> 100 µM	–	> 100 µM	> 100 µM	–	–	–	–	–	–
[C-]#[N+]C1(C(=O)OCC)CC1	> 100 µM	–	> 100 µM	> 100 µM	> 100	–	> 100 µM	> 100 µM	> 100 µM	> 100 µM	–	–	–	–	–	–	–

— PubChem BioAssay (NCI)
